What is called IC50 is the concentration at which inhibition is half-maximal.

Results on six compounds are retold here after paper PMC2919064 (Journal of medicinal chemistry, 2010).

For one assay, the target named is HDAC2 (Homo sapiens, UniProt Q92769). Nature of the assay: HDAC isoform inhibition assay.
The target of the next assay is T1, HDAC10 (Homo sapiens, UniProt Q969S8).
T1 sequence (Q969S8 1-669): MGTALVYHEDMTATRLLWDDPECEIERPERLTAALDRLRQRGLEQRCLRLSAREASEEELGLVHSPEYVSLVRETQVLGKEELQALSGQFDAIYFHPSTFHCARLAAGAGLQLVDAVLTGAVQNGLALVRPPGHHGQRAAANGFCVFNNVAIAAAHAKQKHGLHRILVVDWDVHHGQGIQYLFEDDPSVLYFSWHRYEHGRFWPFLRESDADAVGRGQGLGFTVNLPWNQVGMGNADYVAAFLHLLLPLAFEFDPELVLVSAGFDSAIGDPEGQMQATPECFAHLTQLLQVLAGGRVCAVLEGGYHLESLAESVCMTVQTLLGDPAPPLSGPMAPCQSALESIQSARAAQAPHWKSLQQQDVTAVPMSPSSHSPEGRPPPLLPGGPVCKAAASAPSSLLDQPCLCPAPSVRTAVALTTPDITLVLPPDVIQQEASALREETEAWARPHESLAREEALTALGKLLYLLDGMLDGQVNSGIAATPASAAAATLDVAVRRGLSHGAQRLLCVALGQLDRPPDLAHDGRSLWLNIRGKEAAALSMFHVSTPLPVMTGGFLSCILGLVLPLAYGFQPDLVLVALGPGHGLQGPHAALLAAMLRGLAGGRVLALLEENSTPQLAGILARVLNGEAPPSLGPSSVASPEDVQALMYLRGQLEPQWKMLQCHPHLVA
Nature of the assay: HDAC isoform inhibition assay.

The next assay concerns the target HDAC1 (Homo sapiens, UniProt Q13547). Nature of the assay: HDAC isoform inhibition assay.
Another assay addresses T2, HDAC8 (Homo sapiens, UniProt Q9BY41).
T2 sequence (Q9BY41 1-377): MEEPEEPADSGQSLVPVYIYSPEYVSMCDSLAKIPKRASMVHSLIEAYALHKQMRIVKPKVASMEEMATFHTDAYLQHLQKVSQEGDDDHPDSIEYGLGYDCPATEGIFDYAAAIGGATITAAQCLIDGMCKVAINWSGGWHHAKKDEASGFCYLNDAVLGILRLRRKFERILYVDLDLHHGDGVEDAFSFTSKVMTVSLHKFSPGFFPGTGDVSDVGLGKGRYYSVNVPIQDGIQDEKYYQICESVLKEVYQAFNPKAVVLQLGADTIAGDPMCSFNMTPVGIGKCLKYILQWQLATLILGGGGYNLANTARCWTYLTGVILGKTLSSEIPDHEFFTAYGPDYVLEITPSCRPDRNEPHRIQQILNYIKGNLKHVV
The experiment in a line: HDAC isoform inhibition assay.

The target in a further assay is HDAC3 (Homo sapiens, UniProt O15379). Nature of the assay: HDAC isoform inhibition assay.
Sequence of HDAC3 (O15379 whole entry, canonical isoform): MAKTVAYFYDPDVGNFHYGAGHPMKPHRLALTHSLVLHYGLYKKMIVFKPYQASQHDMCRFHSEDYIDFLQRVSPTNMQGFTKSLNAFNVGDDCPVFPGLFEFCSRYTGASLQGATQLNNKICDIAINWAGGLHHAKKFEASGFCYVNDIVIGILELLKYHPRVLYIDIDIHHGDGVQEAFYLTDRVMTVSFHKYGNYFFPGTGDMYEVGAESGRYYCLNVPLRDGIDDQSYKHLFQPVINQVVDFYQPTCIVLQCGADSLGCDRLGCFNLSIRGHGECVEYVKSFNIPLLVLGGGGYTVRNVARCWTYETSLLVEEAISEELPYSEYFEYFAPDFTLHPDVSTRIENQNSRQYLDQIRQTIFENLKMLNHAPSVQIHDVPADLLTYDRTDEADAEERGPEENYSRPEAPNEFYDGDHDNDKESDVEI
Sequence of HDAC3 (Q9Y618 395-489 partner limits assumed): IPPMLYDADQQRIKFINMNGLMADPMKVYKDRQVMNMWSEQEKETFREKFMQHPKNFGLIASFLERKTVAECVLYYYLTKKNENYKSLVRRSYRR
The target in another assay is T3, HDAC6 (Homo sapiens, UniProt Q9UBN7).
T3 sequence (Q9UBN7 1-1215): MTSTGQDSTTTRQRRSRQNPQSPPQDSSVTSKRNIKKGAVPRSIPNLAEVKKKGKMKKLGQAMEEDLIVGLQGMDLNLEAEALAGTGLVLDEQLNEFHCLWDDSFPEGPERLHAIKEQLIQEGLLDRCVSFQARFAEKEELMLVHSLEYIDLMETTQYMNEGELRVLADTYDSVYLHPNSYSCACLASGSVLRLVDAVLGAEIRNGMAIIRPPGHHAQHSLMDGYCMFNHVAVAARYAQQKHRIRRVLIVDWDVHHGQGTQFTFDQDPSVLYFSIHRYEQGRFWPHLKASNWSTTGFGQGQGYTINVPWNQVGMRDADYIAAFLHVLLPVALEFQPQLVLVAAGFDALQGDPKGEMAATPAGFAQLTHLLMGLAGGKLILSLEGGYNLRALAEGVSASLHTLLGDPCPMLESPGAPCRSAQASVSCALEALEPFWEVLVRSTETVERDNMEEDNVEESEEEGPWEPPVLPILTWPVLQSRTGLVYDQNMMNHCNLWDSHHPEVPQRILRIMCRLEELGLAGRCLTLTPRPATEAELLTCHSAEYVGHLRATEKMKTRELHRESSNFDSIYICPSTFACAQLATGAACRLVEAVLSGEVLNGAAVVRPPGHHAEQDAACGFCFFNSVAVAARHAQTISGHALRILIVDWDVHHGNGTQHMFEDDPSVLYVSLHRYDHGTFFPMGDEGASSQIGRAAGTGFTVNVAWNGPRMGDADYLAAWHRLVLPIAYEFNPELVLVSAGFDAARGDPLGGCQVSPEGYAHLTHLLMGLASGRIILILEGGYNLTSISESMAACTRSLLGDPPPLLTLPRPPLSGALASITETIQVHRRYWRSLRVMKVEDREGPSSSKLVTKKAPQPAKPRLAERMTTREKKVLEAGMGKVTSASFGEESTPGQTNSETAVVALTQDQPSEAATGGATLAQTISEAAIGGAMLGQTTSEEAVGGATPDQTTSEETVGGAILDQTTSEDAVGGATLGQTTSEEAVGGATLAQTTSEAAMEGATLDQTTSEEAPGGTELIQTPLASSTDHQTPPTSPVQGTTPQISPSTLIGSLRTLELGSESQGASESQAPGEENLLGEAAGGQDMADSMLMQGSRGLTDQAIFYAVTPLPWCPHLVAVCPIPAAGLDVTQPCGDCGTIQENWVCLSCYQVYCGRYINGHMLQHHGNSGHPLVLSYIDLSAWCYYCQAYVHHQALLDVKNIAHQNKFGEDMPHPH
The experiment in a line: HDAC isoform inhibition assay.

A further assay has as its system HupT3 cells. Nature of the assay: MTS cell proliferation assay, pancreatic cancer cells. Particulars: read-out: inhibition of pancreatic cancer cell lines IC50, Hup T3. (In general: Tetrazolium assays rely on reduction of a dye to a coloured formazan, in cell work by metabolically active cells.)
Assay [1] deals with Panc04.03 cells. The assay is described as above. The conditions noted are these: read-out: inhibition of pancreatic cancer cell lines IC50, Panc 04.03.
The next assay concerns SU86.86 cells. The assay is described as above. The conditions noted are these: read-out: inhibition of pancreatic cancer cell lines IC50, SU 86.86.
In a further assay the test system is BxPC-3 cells. The assay is described as above. The conditions noted are these: read-out: inhibition of pancreatic cancer cell lines IC50, BxPC-3.
Another assay deals with MiaPaca-2 cells. Described as above. The conditions noted are these: read-out: inhibition of pancreatic cancer cell lines IC50, Mia Paca-2.
Another assay has as its system p21 in BXPC-3 cell line. The experiment in a line: Immunoblot of CDK inhibitor p21 expression. The class given is cell-based. The conditions noted are these: 5 µM for 18 h, vs vehicle (DMSO).
In assay [2] the test system is SU86.86 and Panc04.03 xenografts. Nature of the assay: Xenograft tumor model, SU86.86 and Panc04.03, immunoblot of tumor proteins. The format is in vivo, mouse. Background: In western blotting, separated proteins are transferred to a membrane and probed.
For assay [3], the system named is Panc04.03 cells. Nature of the assay: Cell cycle analysis by flow cytometry. The class given is cell-based. The conditions noted are these: 5 µM for 24 h, vs vehicle (DMSO). (Flow cytometry measures light scatter and fluorescence of single cells or particles in a stream.)

Read-outs that look alike come from different tables or passages of the source. A value given as a limit tells only on which side of the number the result lay.

Sequence of HDAC1 (Q13547 whole entry, canonical isoform): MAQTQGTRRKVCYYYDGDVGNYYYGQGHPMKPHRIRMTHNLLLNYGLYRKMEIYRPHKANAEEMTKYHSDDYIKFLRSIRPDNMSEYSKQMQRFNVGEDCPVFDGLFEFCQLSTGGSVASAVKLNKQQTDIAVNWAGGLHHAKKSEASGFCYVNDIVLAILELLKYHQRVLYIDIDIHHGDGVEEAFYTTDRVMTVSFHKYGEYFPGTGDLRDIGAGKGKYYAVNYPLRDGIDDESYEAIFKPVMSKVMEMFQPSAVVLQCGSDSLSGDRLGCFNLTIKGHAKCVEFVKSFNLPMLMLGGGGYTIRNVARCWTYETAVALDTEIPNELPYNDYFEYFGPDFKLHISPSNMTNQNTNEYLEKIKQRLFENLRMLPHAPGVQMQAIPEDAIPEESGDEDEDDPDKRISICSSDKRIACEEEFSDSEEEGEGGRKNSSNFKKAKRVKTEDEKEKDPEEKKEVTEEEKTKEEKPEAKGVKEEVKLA
Sequence of HDAC2 (Q92769 whole entry, canonical isoform): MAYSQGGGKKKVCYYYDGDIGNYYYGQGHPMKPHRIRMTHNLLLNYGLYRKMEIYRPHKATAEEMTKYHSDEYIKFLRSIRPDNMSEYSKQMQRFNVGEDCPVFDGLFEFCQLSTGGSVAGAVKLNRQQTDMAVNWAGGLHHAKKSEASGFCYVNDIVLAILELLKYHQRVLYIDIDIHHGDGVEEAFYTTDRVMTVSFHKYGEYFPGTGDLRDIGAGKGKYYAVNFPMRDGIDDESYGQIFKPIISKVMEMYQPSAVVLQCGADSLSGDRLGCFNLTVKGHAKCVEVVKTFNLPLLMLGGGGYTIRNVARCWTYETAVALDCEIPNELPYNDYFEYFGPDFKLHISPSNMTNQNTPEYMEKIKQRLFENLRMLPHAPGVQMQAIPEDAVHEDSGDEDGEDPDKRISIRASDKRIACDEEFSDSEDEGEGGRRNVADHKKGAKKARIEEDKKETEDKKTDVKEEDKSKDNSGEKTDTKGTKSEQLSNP

On to `O=C(CCCCCCC(=O)Nc1cccc(-c2cn(C3CCCCC3)nn2)c1)NO` [compound 4j, Octanedioic acid [3-(1-cyclohexyl-1H-[1,2,3]triazol-4-yl)phenyl]amide hydroxyamide], for which the “fold more potent than compound 4a, HDAC2” value at HDAC2 is 2- to 3 fold. Besides, the “fold more potent than compound 4a, HDAC10” value at HDAC10 (ratio of IC50 vs 4a) is listed as 2- to 3 fold. In addition, the “fold more potent than compound 4a, HDAC1” value at HDAC1 (ratio of IC50 vs 4a) is 2- to 3 fold. Besides, the “fold more potent than compound 4a, HDAC8” value on HDAC8 (ratio of IC50 vs 4a) is reported as 2- to 3 fold. In addition, the “fold more potent than compound 4a, HDAC3” value at HDAC3 is 2- to 3 fold. In addition, the “fold more potent than compound 4a, HDAC6” value on HDAC6 (ratio of IC50 vs 4a) was 2- to 3 fold.
Turning to `COc1ccc(-n2cc(-c3cccc(NC(=O)CCCCCCC(=O)NO)c3)nn2)cc1F` [4h, Octanedioic acid {3-[1-(3-fluoro-4-methoxyphenyl)-1H-[1,2,3]-triazol-4-yl]phenyl}amide hydroxyamide], the IC50 in the assay with HupT3 cells (Homo sapiens, HuP-T3, 72 h) worked out at 0.05 µM; in the assay with Panc04.03 cells [1] (Homo sapiens, Panc 04.03, 72 h), 0.1 µM; on HDAC1 it was 0.00506 µM; on HDAC3, 0.00339 µM; against HDAC6 it was 0.00385 µM; in the assay on SU86.86 cells (Homo sapiens, SU.86.86, 72 h), 1 µM. Besides, the IC50 with BxPC-3 cells (Homo sapiens, BXPC-3, 72 h) was 0.2 µM; in the assay with MiaPaca-2 cells (Homo sapiens, MIA PaCa-2, 72 h), 0.1 µM.
With `O=C(CCCCCCC(=O)Nc1ccccc1)NO` [SAHA (1a), suberoylanilide hydroxamic acid, reference compound], in the assay with HupT3 cells (Homo sapiens, HuP-T3, 72 h), the concentration for half-maximal inhibition (IC50) came to 0.8 µM.
Regarding “Octanedioic acid (2-aminophenyl)amide [3-(1-phenyl-1H-[1,2,3] triazol-4-yl)phenyl]amide [12a]”, the IC50 in the assay with HupT3 cells (72 h post treatment) was greater than 50 µM; in the assay with Panc04.03 cells [1] (72 h post treatment), greater than 50 µM; on HDAC10 (read-out: IC50 HDAC10, tested at Nanosyn, 17 hours at 25 °C) it was greater than 30 µM; on HDAC8 (read-out: IC50 HDAC8, tested at Nanosyn, 17 hours at 25 °C), greater than 30 µM; on HDAC3 (read-out: IC50 HDAC3), 0.122 ± 0.009 µM; on HDAC6 (read-out: IC50 HDAC6, tested at Nanosyn, 17 hours at 25 °C), greater than 30 µM. Moreover, the IC50 with SU86.86 cells (72 h post treatment) is 32 µM; in the assay on BxPC-3 cells (72 h post treatment), greater than 50 µM; in the assay on MiaPaca-2 cells (72 h post treatment), greater than 50 µM.
For `O=C(CCCCCCC(=O)Nc1cccc(-c2cn(-c3ccc(CO)cc3)nn2)c1)NO` [4f, Octanedioic acid hydroxyamide {3-[1-(4-hydroxymethylphenyl)-1H-[1,2,3]triazol-4-yl]phenyl}amide], the IC50 in the assay with HupT3 cells (Homo sapiens, HuP-T3, 72 h) was found to be 0.2 µM; with Panc04.03 cells [1] (Homo sapiens, Panc 04.03, 72 h), 1 µM; on HDAC1, 0.00304 µM; at HDAC6, 0.0076 µM; in the assay on SU86.86 cells (Homo sapiens, SU.86.86, 72 h) it was 1 µM; in the assay on BxPC-3 cells (Homo sapiens, BXPC-3, 72 h), 1 µM. Also, in the assay on MiaPaca-2 cells (Homo sapiens, MIA PaCa-2, 72 h), the IC50 worked out at 0.2 µM.
For the compound `O=C(CCCCCCC(=O)Nc1cccc(-c2cn(-c3ccccc3)nn2)c1)NO` [compound 4a, octanedioic acid hydroxyamide[3-(1-phenyl-1H-[1,2,3]triazol-4-yl)phenyl]amide], the “expression of p21 protein” value in the assay with p21 in BXPC-3 cell line was “increased expression of p21”. Further, the “expression of CDK inhibitors p15, p16, p21, p27 and p57 in xenograft tumors” value in assay [2] (10 and 100 mg/kg i.p. every 12 h for 48 h, athymic nude mice) is on record as “re-activated”. In assay [2] (pancreatic tumor cell line xenografts, preliminary in vivo evaluation), the “pancreatic cancer cell growth in vivo” value was “suppresses pancreatic cancer cell growth in vivo”. The IC50 in the assay on Panc04.03 cells [1] (Homo sapiens, Panc 04.03, 72 h) is less than 0.5 µM. In addition, the “effect on cell cycle profile” value in the assay on Panc04.03 cells [3] is “loss of S-phase cells and an increase in the percentage of cells in G1”.
